In patent US10947252B2, “Inhibitors of KEAP1-Nrf2 protein-protein interaction” (Janssen Pharmaceutica NV, priority 2018, dated 2021):
pEC50, pKd: −log10 of the molar value.

What was measured:
[1] = tested on: Glo-Response ARE-luc2P HEK293 cell line; test: ARE luciferase reporter cell-based assay; settings: average of results obtained;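 further: luciferase signal tracks Nrf2 activation of the ARE once compounds disrupt KEAP1-Nrf2 binding, read with One-Glo reagent, DMSO serving as low control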
[2] = molecular target: Kelch domain of human KEAP1 (321-624 aa) (Homo sapiens (Human), UniProt Q14145); test: KEAP1 KELCH ThermoFluor binding assay; settings: KEAP Kelch […], 1,8-ANS, pH 7.0, average of results obtained, read-out: Tf Kd;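 further: Ligand-induced melting temperature shift of E. coli-expressed KEAP1 Kelch protein, Kd estimated from concentration-response curves of ΔTm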
Chain of Kelch domain of human KEAP1 (321-624 aa) (Q14145 321-624): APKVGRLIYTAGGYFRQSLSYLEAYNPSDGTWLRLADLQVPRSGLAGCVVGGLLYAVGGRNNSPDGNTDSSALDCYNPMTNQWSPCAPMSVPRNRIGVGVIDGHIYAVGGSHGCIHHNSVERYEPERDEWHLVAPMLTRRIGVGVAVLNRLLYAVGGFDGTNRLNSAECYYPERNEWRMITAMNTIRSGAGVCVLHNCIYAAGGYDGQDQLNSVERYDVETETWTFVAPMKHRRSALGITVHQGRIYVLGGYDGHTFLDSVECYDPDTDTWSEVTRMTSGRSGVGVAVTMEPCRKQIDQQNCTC

SMILES | pKd [2] | pEC50 ([1]; Homo sapiens, HEK293, 24 h) | pEC50 ([1]; 24 hours)
Cc1ccc([C@H](CC(=O)O)c2ccn3c(C4CC4)nnc3c2C)cc1CN1CC2(CC2)Oc2ncc(F)cc2S1(=O)=O (single isomer, unassigned) [Example 230, (*S)-3-(3-Cyclopropyl-8-methyl-[1,2,4]triazolo[4,3-a]pyridin-7-yl)-3-(3-((8′-fluoro-1′,1′-dioxidospiro[cyclopropane-1,4′-pyrido[2,3-b][1,4,5]oxathiazepin]-2′(3′H)-yl)methyl)-4-methylphenyl)propanoic Acid] | > 9.00 | 6.32 | 
Cc1c([C@H](CC(=O)O)c2ccc(Cl)c(CN3CC4(COC4)Oc4ncccc4S3(=O)=O)c2)ccn2c(C(F)(F)F)nnc12 (single isomer, unassigned) [Example 87, (*R)-3-(4-Chloro-3-((1′,1′-dioxoidospiro[oxetane-3,4′-pyrido[2,3-b][1,4,5]oxathiazepin]-2′(3′H)-yl)methyl)phenyl)-3-(8-methyl-3-(trifluoromethyl)-[1,2,4]triazolo[4,3-a]pyridine-7-yl)propanoic Acid] | 8.89 | 5.60 | 
Cc1ccc(C(CC(=O)O)c2ccn3c(C(F)F)nnc3c2C)cc1CN1CC2(CCOCC2)Oc2ncc(F)cc2S1(=O)=O (stereo not drawn) [Example 532, 3-(3-(Difluoromethyl)-8-methyl-[1,2,4]triazolo[4,3-a]pyridin-7-yl)-3-(3-((8′-fluoro-1′,1′-dioxido-2,3,5,6-tetrahydrospiro[pyran-4,4′-pyrido[2,3-b][1,4,5]oxathiazepin]-2′(3′H)-yl)methyl)-4-methylphenyl)propanoic Acid] | > 9.00 | 7.38 | 
Cc1c([C@@H](CC(=O)O)c2ccc(Cl)c(CN3CC4CCCCN4c4ncc(F)cc4S3(=O)=O)c2)ccn2c(C(F)(F)F)nnc12 (single isomer, unassigned) [Example 94, (*S)-3-(4-Chloro-3-(((*S)-3-fluoro-5,5-dioxido-7,7a,8,9,10,11-hexahydro-6H-dipyrido[2,1-d:2′,3′-f][1,2,5]thiadiazepin-6-yl)methyl)phenyl)-3-(8-methyl-3-(trifluoromethyl)-[1,2,4]triazolo[4,3-a]pyridine-7-yl)propanoic Acid] | > 9.00 | 7.27 | 
Cc1cnc2c(c1)S(=O)(=O)N(Cc1cc([C@H](c3ccn4c(C(F)(F)F)nnc4c3C)C(C)(C)C(=O)O)ccc1C)CC1(CCOCC1)O2 (single isomer, unassigned) [Example 19, (*R)-2,2-Dimethyl-3-(4-methyl-3-((8′-methyl-1′,1′-dioxido-2,3,5,6-tetrahydrospiro[pyran-4,4′-pyrido[2,3-b][1,4,5]oxathiazepin]-2′(3′H)-yl)methyl)phenyl)-3-(8-methyl-3-(trifluoromethyl)-[1,2,4]triazolo[4,3-a]pyridin-7-yl)propanoic Acid] | 5.89 | 6.10 | 
Cc1ccc([C@@H](CC(=O)O)c2ccn3c(C(F)F)nnc3c2C)cc1CN1C[C@H]2CCCN2c2ncccc2S1(=O)=O (single isomer, unassigned) [Example 451, (*R)-3-(3-(Difluoromethyl)-8-methyl-[1,2,4]triazolo[4,3-a]pyridin-7-yl)-3-(3-(((R)-5,5-dioxido-7a,8,9,10-tetrahydropyrido[2,3-f]pyrrolo[2,1-d][1,2,5]thiadiazepin-6(7H)-yl)methyl)-4-methylphenyl)propanoic Acid] | > 9.00 | 6.58 | 
Cc1cnc2c(c1)S(=O)(=O)N(Cc1nc([C@H](CC(=O)O)c3ccn4c(C(F)(F)F)nnc4c3C)ccc1C)C[C@H]1CCCCN21 (single isomer, unassigned) [Example 492, (*R)-3-(8-Methyl-3-(trifluoromethyl)-[1,2,4]triazolo[4,3-a]pyridin-7-yl)-3-(5-methyl-6-(((*R)-3-methyl-5,5-dioxido-7,7a,8,9,10,11-hexahydro-6H-dipyrido[2,1-d:2′,3′-f][1,2,5]thiadiazepin-6-yl)methyl)pyridin-2-yl)propanoic Acid] | > 9.00 | 7.89 | 

Now from value to compound, other results behind:

pKd [2] | SMILES | pEC50 ([1]; Homo sapiens, HEK293, 24 h) | pEC50 ([1]; 24 hours)
> 9.00 | Cc1cnc2c(c1)S(=O)(=O)N(Cc1cc([C@@H](c3ccn4c(C(F)F)nnc4c3C)C(C)(C)C(=O)O)ccc1C)CC1(CCOCC1)O2 (single isomer, unassigned) [Example 576, (*S)-3-(3-(Difluoromethyl)-8-methyl-[1,2,4]triazolo[4,3-a]pyridin-7-yl)-2,2-dimethyl-3-(4-methyl-3-((8′-methyl-1′,1′-dioxido-2,3,5,6-tetrahydrospiro[pyran-4,4′-pyrido[2,3-b][1,4,5]oxathiazepin]-2′(3′H)-yl)methyl)phenyl)propanoic Acid] | 8.63 | 
5.89 | Cc1cnc2c(c1)S(=O)(=O)N(Cc1cc([C@H](c3ccn4c(C(F)(F)F)nnc4c3C)C(C)(C)C(=O)O)ccc1C)CC1(CCOCC1)O2 (single isomer, unassigned) [Example 408, (*R)-2,2-dimethyl-3-(4-methyl-3-((8′-methyl-1′,1′-dioxido-2,3,5,6-tetrahydrospiro[pyran-4,4′-pyrido[2,3-b][1,4,5]oxathiazepin]-2′(3′H)-yl)methyl)phenyl)-3-(8-methyl-3-(trifluoromethyl)-[1,2,4]triazolo[4,3-a]pyridin-7-yl)propanoic Acid] |  | 6.10
> 9.00 | CCn1nnc2c(C)c([C@H](c3ccc(C)c(CN4CC5(CCOCC5)Oc5ncc(C)cc5S4(=O)=O)n3)C(C)(C)C(=O)O)ccc21 (single isomer, unassigned) [Example 557, (*S)-3-(1-Ethyl-4-methyl-1H-benzo[d][1,2,3]triazol-5-yl)-2,2-dimethyl-3-(5-methyl-6-((8′-methyl-1′,1′-dioxido-2,3,5,6-tetrahydrospiro[pyran-4,4′-pyrido[2,3-b][1,4,5]oxathiazepin]-2′(3′H)-yl)methyl)pyridin-2-yl)propanoic Acid] | 9.25 | 
> 9.00 | Cc1ccc([C@H](c2ccn3c(C(F)(F)F)nnc3c2C)C(C)(C)C(=O)O)cc1CN1CC2(CCOCC2)Oc2nc(NC3CC(O)C3)c(C)cc2S1(=O)=O (single isomer, unassigned) [Example 361, (*R)-3-(3-((7′-(((1R,3R)-3-Hydroxycyclobutyl)amino)-8′-methyl-1′,1′-dioxido-2,3,5,6-tetrahydrospiro[pyran-4,4′-pyrido[2,3-b][1,4,5]oxathiazepin]-2′(3′H)-yl)methyl)-4-methylphenyl)-2,2-dimethyl-3-(8-methyl-3-(trifluoromethyl)-[1,2,4]triazolo[4,3-a]pyridine-7-yl)propanoic Acid] | 7.22 | 
> 9.00 | Cc1ccc([C@@H](c2ccn3c(C4CC4)nnc3c2C)C(C)(C)C(=O)O)cc1CN1CC2(CC2)Oc2nc(OCCN3CCCC3)c(C)cc2S1(=O)=O (single isomer, unassigned) [Example 663, (*S)-3-(3-Cyclopropyl-8-methyl-[1,2,4]triazolo[4,3-a]pyridin-7-yl)-2,2-dimethyl-3-(4-methyl-3-((8′-methyl-1′,1′-dioxido-7′-(2-(pyrrolidin-1-yl)ethoxy)spiro[cyclopropane-1,4′-pyrido[2,3-b][1,4,5]oxathiazepin]-2′(3′H)-yl)methyl)phenyl)propanoic Acid] | 7.24 | 
